How the values were obtained:
Nrf2 = Nrf2 expression and subcellular localization (immunostaining, Western blot, qRT-PCR) in TNBC cells; assay type: cell-based, human; conditions: niclosamide 2 μM, 24 h; for Nrf2 protein level: Western blot; for Nrf2 mRNA level: qRT-PCR
Description: (§1) Total RNA was extracted from cells using TRIzol Reagent (ThermoFisher Scientific, Waltham, MA, USA) and the RNA was reverse-transcribed using a high-capacity cDNA reverse transcription kit (ThermoFisher Scientific, Waltham, MA, USA) according to the manufacturer’s protocol. Quantitative RT-PCR was performed with Takara Taq Hot Start Version (TaKaRa Biotechnology, Shiga, Japan) or Power SYBR Green PCR master mix (Bio-Rad, Hercules, CA, USA). Primer sequences are shown in Supplemental Table S1. The relative mRNA expression was determined by the 2^−∆∆Ct method. Additionally, 18S was used as a housekeeping gene for normalization.
(§2) Cells and tumor tissues were lysed in Pierce™ RIPA buffer (ThermoFisher Scientific, Waltham, MA, USA) supplemented with Halt™ Protease and Phosphatase Inhibitor Cocktail (ThermoFisher Scientific, Waltham, MA, USA). Homogenates were centrifuged, and supernatants were used for protein measurement via Pierce™ BCA Protein Assay Kit (ThermoFisher Scientific, Waltham, MA, USA). […] Western blot samples were prepared in Laemmli sample buffer (Bio-Rad Laboratories, Hercules, CA, USA). They were loaded onto a SDS–PAGE gel and transferred onto a PVDF membrane (Bio-Rad Laboratories, Hercules, CA, USA). The membrane was blocked and antibodies diluted in 5% nonfat dry milk (Bio-Rad Laboratories, Hercules, CA, USA) or in 5% bovine serum albumin (Irvine Scientific, Santa Ana, CA, USA) were used. Protein bands were visualized using Pierce™ ECL Western Blotting Substrate (ThermoFisher Scientific, Waltham, MA, USA) and developed on the autoradiography film (Santa Cruz, Dallas, TX, USA). Primary antibodies were purchased either from Cell Signaling (Danvers, MA, USA) [anti-GPX4 (#52455), anti-FTH (#4393), anti-HSP60 (#12165), anti-phospho-p70S6K (#9205), anti-p70S6K (#2708)] or from Abcam (Waltham, MA, USA) [Nrf2 (#ab62352)]. Secondary antibody Horseradish peroxidase-conjugated goat anti-rabbit IgG (#1706515) was purchased from Bio-Rad Laboratories (Hercules, CA, USA). For quantification of protein levels by the densitometric analysis, the experiment was carried out in triplicate and the data were collected from the resultant three Western blots.

MB231 xenograft = assay: Mouse xenograft tumor growth; assay type: in vivo; conditions: MB231 xenograft in nude mice; niclosamide 4 mg/kg daily intraperitoneal
Description: (§3) Female athymic nude mice (4-week-old) were purchased from Jackson Laboratories and housed under standard conditions. MDA-MB231 cells were injected into lower mammary fat pad (5 × 10^6 cells). All cells were suspended in serum-free media and Matrigel (1:1 ratio), with 100 µL of suspension being injected into each mouse. Mice were treated by daily intraperitoneal injection of niclosamide (4 mg/kg/day) and vehicle (dimethylsulfoxide) control. The treatment began when the tumor size was 100–150 mm^3. Tumor size was measured biweekly with a caliper, with tumor volume calculated using the formula (width^2 × length)/2. Tumors were allowed to grow for 7 weeks; mice were then euthanized via isoflurane […] and tumors harvested. The animal study protocol was approved by the Texas Tech University Health Sciences Center Institutional Animal Care and Use Committee (IACUC protocol number 18005) and the experiments were conducted in the same institution. RNA and protein were prepared from the tumor tissue for qRT-PCR and Western blotting.

MB231 xenograft tumors = assay: qRT-PCR and Western blot of xenograft tumor tissue; assay type: in vivo, mouse; conditions: niclosamide 4 mg/kg daily i.p.
Description: as §1, §2, §3

SLC38A5 and SLC7A11 mRNA = assay: qRT-PCR of SLC38A5 and SLC7A11 mRNA in TNBC cells; assay type: cell-based, human; conditions: niclosamide 2 μM, 24 h; MB231 and TXBR100
Description: as §1

MB231 and TXBR100 cells = assay: Lipid peroxidation (malondialdehyde) assay; assay type: cell-based, human; conditions: niclosamide 2.5 and/or 5 μM, 24 h
Description: Control and niclosamide-treated cells were used for measurement of cellular glutathione levels as instructed in the manufacturer’s protocol (GSH-Glo assay, Promega, Madison, WI, USA). The levels of malondialdehyde were measured using lipid peroxidation kit [Lipid Peroxidation (MDA) Assay Kit (MAK085), Millipore-sigma, St. Louis, MO, USA].

O=C(Nc1ccc([N+](=O)[O-])cc1Cl)c1cc(Cl)ccc1O [niclosamide]
Nrf2 protein level (Nrf2; MB231): decreased
Nrf2 mRNA level (Nrf2; MB231): decreased
Nrf2 protein level (Nrf2; TXBR100): significantly decreased
Nrf2 mRNA level (Nrf2; TXBR100): did not alter
growth of the tumors (MB231 xenograft): drastic reduction
Nrf2 protein levels in tumors (MB231 xenograft tumors; Western blot): markedly decreased
ferritin heavy chain protein levels in tumors (MB231 xenograft tumors; Western blot): decreased
Nrf2 mRNA level in tumors (MB231 xenograft tumors; qRT-PCR): markedly decreased
SLC7A11 mRNA level in tumors (MB231 xenograft tumors; qRT-PCR): markedly decreased
SLC38A5 mRNA level in tumors (MB231 xenograft tumors; qRT-PCR): markedly decreased
SLC7A11 mRNA level (SLC38A5 and SLC7A11 mRNA): decreased
SLC38A5 mRNA level (SLC38A5 and SLC7A11 mRNA): decreased
malondialdehyde levels (lipid peroxidation) (MB231 and TXBR100 cells): increase

Source: paper PMC10967572, “Induction of Oxidative Stress and Ferroptosis in Triple-Negative Breast Cancer Cells by Niclosamide via Blockade of the Function and Expression of SLC38A5 and SLC7A11” (Antioxidants, 2024)
